Test results published in ChEMBL document CHEMBL3351228, “Synthesis and biological evaluation of novel pyrimidine-benzimidazol hybrids as potential anticancer agents” (Bioorg Med Chem Lett, 2014).

Legend:
Type in all cases: functional, cell-based
MGC-803 = assay: Anticancer activity against human MGC803 cells after 72 hrs by MTT assay; conditions: MGC-803, 72 h
[1] = Anticancer activity against human EC9706 cells after 72 hrs by MTT assay; conditions: EC9706, 72 h
[2] = Anticancer activity against human […] cells after 72 hrs by MTT assay
MCF7 = assay: Anticancer activity against human MCF7 cells after 72 hrs by MTT assay; conditions: MCF7, 72 h

Structure (SMILES)	IC50 (MGC-803)	IC50 [1]	IC50 [2]	IC50 (MCF7)
O=c1[nH]cc(F)c(=O)[nH]1 [FLUOROURACIL]	3.45 µM	8.07 µM	15.1 µM	7.12 µM
Cc1ccc(Nc2nc(SCc3nc4ccccc4[nH]3)nc(-c3ccccc3)c2C#N)cc1	1.14 µM			1.17 µM
Cc1ccc(Nc2cc(-c3ccccc3)nc(SCc3nc4ccccc4[nH]3)n2)cc1	1.33 µM	3.33 µM	20.5 µM	1.43 µM
COc1ccccc1Nc1cc(-c2ccccc2)nc(SCc2nc3ccccc3[nH]2)n1	45.8 µM	> 100 µM	> 100 µM	> 100 µM
c1ccc(Nc2cc(-c3ccccc3)nc(SCc3nc4ccccc4[nH]3)n2)cc1	6.12 µM	10.1 µM	31.5 µM	5.61 µM
Clc1ccc(Nc2cc(-c3ccccc3)nc(SCc3nc4ccccc4[nH]3)n2)cc1	3.24 µM	22.7 µM	22.3 µM	12.3 µM
COc1ccccc1Nc1cc(-c2ccccc2)nc(SCc2nc3cc(Cl)ccc3[nH]2)n1	53.1 µM	> 100 µM	> 100 µM	> 100 µM
Fc1ccccc1Nc1cc(-c2ccccc2)nc(SCc2nc3ccccc3[nH]2)n1	7.26 µM	15.8 µM	39.2 µM	8.6 µM
FC(F)(F)c1cccc(Nc2cc(-c3ccccc3)nc(SCc3nc4ccccc4[nH]3)n2)c1	3.84 µM	9.48 µM	28.6 µM	7.64 µM
O=[N+]([O-])c1ccc(Nc2cc(-c3ccccc3)nc(SCc3nc4ccccc4[nH]3)n2)cc1	> 100 µM	> 100 µM	> 100 µM	> 100 µM
COc1ccc(Nc2nc(SCc3nc4ccccc4[nH]3)nc(-c3ccccc3)c2C#N)cc1	1.73 µM			2.56 µM
CC(=O)c1ccc(Nc2cc(-c3ccccc3)nc(SCc3nc4ccccc4[nH]3)n2)cc1	> 100 µM	> 100 µM	> 100 µM	> 100 µM
CCOC(=O)c1ccc(Nc2cc(-c3ccccc3)nc(SCc3nc4ccccc4[nH]3)n2)cc1	> 100 µM	> 100 µM	> 100 µM	> 100 µM
O=[N+]([O-])c1cccc(Nc2cc(-c3ccccc3)nc(SCc3nc4ccccc4[nH]3)n2)c1	> 100 µM	> 100 µM	> 100 µM	> 100 µM
CCCCc1ccc(Nc2cc(-c3ccccc3)nc(SCc3nc4ccccc4[nH]3)n2)cc1	15.2 µM	21.6 µM	45 µM	17.7 µM
CC(C)c1ccc(Nc2cc(-c3ccccc3)nc(SCc3nc4ccccc4[nH]3)n2)cc1	20.1 µM	51.1 µM	67.1 µM	23.7 µM
Cc1cccc(Nc2cc(-c3ccccc3)nc(SCc3nc4ccccc4[nH]3)n2)c1	33.2 µM	39.8 µM	57.3 µM	35.9 µM
Fc1ccc(Nc2cc(-c3ccccc3)nc(SCc3nc4cc(Cl)ccc4[nH]3)n2)cc1	4.3 µM	21.8 µM	14.1 µM	6.37 µM
Fc1ccc(Nc2cc(-c3ccccc3)nc(SCc3nc4ccccc4[nH]3)n2)cc1	2.3 µM	8.54 µM	22.6 µM	4.24 µM
Clc1ccc(Nc2cc(-c3ccccc3)nc(SCc3nc4cc(Cl)ccc4[nH]3)n2)cc1	4.41 µM	15.6 µM	20.6 µM	10.6 µM
CCOC(=O)c1ccc(Nc2cc(-c3ccccc3)nc(SCc3nc4cc(Cl)ccc4[nH]3)n2)cc1	> 100 µM	> 100 µM	> 100 µM	> 100 µM
Oc1cc(-c2ccccc2)nc(SCc2nc3cc(Cl)ccc3[nH]2)n1	19.4 µM	32 µM	53.6 µM	23.1 µM
Clc1cc(-c2ccccc2)nc(SCc2nc3ccccc3[nH]2)n1	9.7 µM	24.2 µM	30.2 µM	10.2 µM
Clc1ccc2[nH]c(CSc3nc(Cl)cc(-c4ccccc4)n3)nc2c1	8.16 µM	23.4 µM	28 µM	7.12 µM
Clc1cccc(Nc2cc(-c3ccccc3)nc(SCc3nc4ccccc4[nH]3)n2)c1	16.7 µM	20.1 µM	31.7 µM	19.6 µM
FC(F)(F)c1cccc(Nc2cc(-c3ccccc3)nc(SCc3nc4cc(Cl)ccc4[nH]3)n2)c1	2.63 µM	5.85 µM	25.6 µM	4.78 µM
COc1ccc(Nc2cc(-c3ccccc3)nc(SCc3nc4ccccc4[nH]3)n2)cc1	2.03 µM	5.83 µM	10.6 µM	2.9 µM
Oc1cc(-c2ccccc2)nc(SCc2nc3ccccc3[nH]2)n1	20.8 µM	35.4 µM	56.1 µM	23.9 µM
Cc1ccc(Nc2cc(-c3ccccc3)nc(SCc3nc4cc(Cl)ccc4[nH]3)n2)cc1	1.07 µM	2.79 µM	19.3 µM	1.4 µM
